Source: ChEMBL document CHEMBL3885881, “DrugMatrix”

Species on record: Rattus norvegicus
Assay: DrugMatrix - Regimen: Daily Repeat
Type: toxicity, organism-based, Sprague-Dawley
Design: regimen Daily Repeat, gender Male, age 6-8 weeks
Details: in vivo, po, route oral GAVAGE, […]; for ABSOLUTE BASOPHIL / BASOPHIL / NUCLEATED RED BLOOD CELLS / ABSOLUTE EOSINOPHIL / ABSOLUTE LYMPHOCYTE / ABSOLUTE MONOCYTE / ABSOLUTE SEGMENTED NEUTROPHIL / EOSINOPHIL / ERYTHROCYTE COUNT / HEMATOCRIT / LEUKOCYTE COUNT / MEAN CORPUSCULAR HEMOGLOBIN / MEAN CORPUSCULAR HEMOGLOBIN CONCENTRATION / MEAN CORPUSCULAR VOLUME / MONOCYTE / NEUTROPHIL / PLATELET COUNT: tissue Blood; for TOTAL BILIRUBIN / ALANINE AMINOTRANSFERASE / ALBUMIN / ALKALINE PHOSPHATASE / ASPARTATE AMINOTRANSFERASE / BLOOD UREA NITROGEN / CHLORIDE / CHOLESTEROL / CREATINE PHOSPHOKINASE / CREATININE / GLUCOSE / LACTATE DEHYDROGENASE / LIPASE / PHOSPHORUS / POTASSIUM / URIC ACID: tissue Plasma
[1] = 0 mg/kg, 72 h, dose level Control, time 3 day
[2] = 0 mg/kg, 120 h, dose level Control, time 5 day
[3] = 1 mg/kg, 72 h, dose level Low, time 3 day
[4] = 1 mg/kg, 120 h, dose level Low, time 5 day
[5] = 150 mg/kg, 72 h, dose level M1, time 3 day
[6] = 300 mg/kg, 72 h, dose level High, time 3 day
[7] = 300 mg/kg, 120 h, dose level High, time 5 day

C[C@@H]1C[C@H]2[C@@H]3CCC4=CC(=O)C=C[C@]4(C)[C@@]3(F)[C@@H](O)C[C@]2(C)[C@@]1(O)C(=O)CO [DEXAMETHASONE]
ABSOLUTE BASOPHIL [1]: 0 CELLS/uL
BASOPHIL [1]: 0%
NUCLEATED RED BLOOD CELLS [1]: 0 /100WBC
TOTAL BILIRUBIN [1]: 0.2 mg/dL
ABSOLUTE BASOPHIL [2]: 0 CELLS/uL
BASOPHIL [2]: 0%
ABSOLUTE BASOPHIL [3]: 0 CELLS/uL
ABSOLUTE EOSINOPHIL [3]: 0 CELLS/uL
ABSOLUTE LYMPHOCYTE [3]: 386.33 CELLS/uL
ABSOLUTE MONOCYTE [3]: 54.33 CELLS/uL
ABSOLUTE SEGMENTED NEUTROPHIL [3]: 12226 CELLS/uL
BASOPHIL [3]: 0%
EOSINOPHIL [3]: 0%
ERYTHROCYTE COUNT [3]: 4.89 x10E6/uL
HEMATOCRIT [3]: 30.93%
LEUKOCYTE COUNT [3]: 12.67 x10E3/uL
MEAN CORPUSCULAR HEMOGLOBIN [3]: 25.53 pg
MEAN CORPUSCULAR HEMOGLOBIN CONCENTRATION [3]: 40.3 G/DL
MEAN CORPUSCULAR VOLUME [3]: 63.33 fL
MONOCYTE [3]: 0.33%
NEUTROPHIL [3]: 96%
NUCLEATED RED BLOOD CELLS [3]: 1 /100WBC
PLATELET COUNT [3]: 1088 x10E3/uL
ALANINE AMINOTRANSFERASE [3]: 118.33 u/L
ALBUMIN [3]: 4.1 G/DL
ALKALINE PHOSPHATASE [3]: 632 u/L
ASPARTATE AMINOTRANSFERASE [3]: 203 u/L
BLOOD UREA NITROGEN [3]: 28.33 mg/dL
CHLORIDE [3]: 95 MEQ/L
CHOLESTEROL [3]: 76.33 mg/dL
CREATINE PHOSPHOKINASE [3]: 789 u/L
CREATININE [3]: 0.16 mg/dL
GLUCOSE [3]: 441 mg/dL
LACTATE DEHYDROGENASE [3]: 205.67 u/L
LIPASE [3]: 45.67 u/L
PHOSPHORUS [3]: 10.57 mg/dL
POTASSIUM [3]: 5.98 MEQ/L
TOTAL BILIRUBIN [3]: 0.33 mg/dL
URIC ACID [3]: 1.2 mg/dL
ABSOLUTE BASOPHIL [4]: 0 CELLS/uL
ABSOLUTE EOSINOPHIL [4]: 0 CELLS/uL
ABSOLUTE LYMPHOCYTE [4]: 716 CELLS/uL
ABSOLUTE MONOCYTE [4]: 233 CELLS/uL
ABSOLUTE SEGMENTED NEUTROPHIL [4]: 18184.33 CELLS/uL
BASOPHIL [4]: 0%
EOSINOPHIL [4]: 0%
ERYTHROCYTE COUNT [4]: 3.43 x10E6/uL
HEMATOCRIT [4]: 25.35%
LEUKOCYTE COUNT [4]: 19.13 x10E3/uL
MEAN CORPUSCULAR HEMOGLOBIN [4]: 24.9 pg
MEAN CORPUSCULAR HEMOGLOBIN CONCENTRATION [4]: 40.75 G/DL
MEAN CORPUSCULAR VOLUME [4]: 59.67 fL
MONOCYTE [4]: 1.33%
NEUTROPHIL [4]: 94%
NUCLEATED RED BLOOD CELLS [4]: 3.33 /100WBC
PLATELET COUNT [4]: 832.67 x10E3/uL
ALANINE AMINOTRANSFERASE [4]: 247 u/L
ALBUMIN [4]: 3.87 G/DL
ALKALINE PHOSPHATASE [4]: 684.67 u/L
ASPARTATE AMINOTRANSFERASE [4]: 267.67 u/L
BLOOD UREA NITROGEN [4]: 20 mg/dL
CHLORIDE [4]: 95 MEQ/L
CHOLESTEROL [4]: 149.67 mg/dL
CREATINE PHOSPHOKINASE [4]: 312.33 u/L
CREATININE [4]: 0.11 mg/dL
GLUCOSE [4]: 438.67 mg/dL
LACTATE DEHYDROGENASE [4]: 287.33 u/L
LIPASE [4]: 21.67 u/L
PHOSPHORUS [4]: 9.83 mg/dL
POTASSIUM [4]: 5.94 MEQ/L
TOTAL BILIRUBIN [4]: 0.25 mg/dL
URIC ACID [4]: 1.43 mg/dL
ABSOLUTE BASOPHIL [5]: 0 CELLS/uL
ABSOLUTE EOSINOPHIL [5]: 0 CELLS/uL
ABSOLUTE LYMPHOCYTE [5]: 851.67 CELLS/uL
ABSOLUTE MONOCYTE [5]: 0 CELLS/uL
ABSOLUTE SEGMENTED NEUTROPHIL [5]: 8381.67 CELLS/uL
BASOPHIL [5]: 0%
EOSINOPHIL [5]: 0%
ERYTHROCYTE COUNT [5]: 3.49 x10E6/uL
HEMATOCRIT [5]: 22.2%
LEUKOCYTE COUNT [5]: 9.23 x10E3/uL
MEAN CORPUSCULAR HEMOGLOBIN [5]: 24.87 pg
MEAN CORPUSCULAR HEMOGLOBIN CONCENTRATION [5]: 39.17 G/DL
MEAN CORPUSCULAR VOLUME [5]: 63.47 fL
MONOCYTE [5]: 0%
NEUTROPHIL [5]: 90.33%
NUCLEATED RED BLOOD CELLS [5]: 0 /100WBC
PLATELET COUNT [5]: 661.67 x10E3/uL
ALANINE AMINOTRANSFERASE [5]: 222.67 u/L
ALBUMIN [5]: 4.03 G/DL
ALKALINE PHOSPHATASE [5]: 224 u/L
ASPARTATE AMINOTRANSFERASE [5]: 153.67 u/L
BLOOD UREA NITROGEN [5]: 40.67 mg/dL
CHLORIDE [5]: 88.33 MEQ/L
CREATINE PHOSPHOKINASE [5]: 139 u/L
CREATININE [5]: 0.28 mg/dL
GLUCOSE [5]: 361.33 mg/dL
LACTATE DEHYDROGENASE [5]: 175.33 u/L
LIPASE [5]: 12 u/L
PHOSPHORUS [5]: 7.7 mg/dL
POTASSIUM [5]: 3.29 MEQ/L
TOTAL BILIRUBIN [5]: 0.27 mg/dL
URIC ACID [5]: 0.6 mg/dL
ABSOLUTE BASOPHIL [6]: 0 CELLS/uL
ABSOLUTE EOSINOPHIL [6]: 101.33 CELLS/uL
ABSOLUTE LYMPHOCYTE [6]: 370.67 CELLS/uL
ABSOLUTE MONOCYTE [6]: 0 CELLS/uL
ABSOLUTE SEGMENTED NEUTROPHIL [6]: 13461.33 CELLS/uL
BASOPHIL [6]: 0%
EOSINOPHIL [6]: 0.67%
ERYTHROCYTE COUNT [6]: 4.56 x10E6/uL
HEMATOCRIT [6]: 29.6%
LEUKOCYTE COUNT [6]: 13.93 x10E3/uL
MEAN CORPUSCULAR HEMOGLOBIN [6]: 26.77 pg
MEAN CORPUSCULAR HEMOGLOBIN CONCENTRATION [6]: 41.3 G/DL
MEAN CORPUSCULAR VOLUME [6]: 64.73 fL
MONOCYTE [6]: 0%
NEUTROPHIL [6]: 96.67%
NUCLEATED RED BLOOD CELLS [6]: 3 /100WBC
PLATELET COUNT [6]: 922.33 x10E3/uL
ALANINE AMINOTRANSFERASE [6]: 191 u/L
ALBUMIN [6]: 3.07 G/DL
ALKALINE PHOSPHATASE [6]: 263 u/L
ASPARTATE AMINOTRANSFERASE [6]: 136.33 u/L
BLOOD UREA NITROGEN [6]: 17 mg/dL
CHLORIDE [6]: 90.33 MEQ/L
CHOLESTEROL [6]: 231 mg/dL
CREATINE PHOSPHOKINASE [6]: 714.67 u/L
CREATININE [6]: 0.13 mg/dL
GLUCOSE [6]: 404.67 mg/dL
LACTATE DEHYDROGENASE [6]: 193.33 u/L
LIPASE [6]: 55 u/L
PHOSPHORUS [6]: 10.2 mg/dL
POTASSIUM [6]: 3.86 MEQ/L
TOTAL BILIRUBIN [6]: 1.1 mg/dL
URIC ACID [6]: 1.1 mg/dL
ABSOLUTE BASOPHIL [7]: 0 CELLS/uL
ABSOLUTE EOSINOPHIL [7]: 0 CELLS/uL
ABSOLUTE LYMPHOCYTE [7]: 332 CELLS/uL
ABSOLUTE MONOCYTE [7]: 0 CELLS/uL
ABSOLUTE SEGMENTED NEUTROPHIL [7]: 16268 CELLS/uL
BASOPHIL [7]: 0%
EOSINOPHIL [7]: 0%
ERYTHROCYTE COUNT [7]: 2.89 x10E6/uL
HEMATOCRIT [7]: 17%
LEUKOCYTE COUNT [7]: 16.6 x10E3/uL
MEAN CORPUSCULAR HEMOGLOBIN [7]: 25.3 pg
MEAN CORPUSCULAR HEMOGLOBIN CONCENTRATION [7]: 42.9 G/DL
MEAN CORPUSCULAR VOLUME [7]: 58.9 fL
MONOCYTE [7]: 0%
NEUTROPHIL [7]: 98%
NUCLEATED RED BLOOD CELLS [7]: 0 /100WBC
PLATELET COUNT [7]: 777 x10E3/uL
ALANINE AMINOTRANSFERASE [7]: 1291 u/L
ALBUMIN [7]: 3.2 G/DL
ALKALINE PHOSPHATASE [7]: 579 u/L
ASPARTATE AMINOTRANSFERASE [7]: 470 u/L
BLOOD UREA NITROGEN [7]: 26 mg/dL
CHLORIDE [7]: 87 MEQ/L
CHOLESTEROL [7]: 201 mg/dL
CREATINE PHOSPHOKINASE [7]: 1188 u/L
CREATININE [7]: 0.1 mg/dL
GLUCOSE [7]: 443 mg/dL
LACTATE DEHYDROGENASE [7]: 750 u/L
LIPASE [7]: 9 u/L
PHOSPHORUS [7]: 10.7 mg/dL
POTASSIUM [7]: 2.68 MEQ/L
TOTAL BILIRUBIN [7]: 0.8 mg/dL
URIC ACID [7]: 0.7 mg/dL
